molecular target: EGFR (Homo sapiens, UniProt P00533); test: EGFR assay (cellular ELISA, NIH 3T3/C7 cells); format: cell-based; design: expressed in transfected cells; host or cells: NIH 3T3/C7; details: read-out: cell EGF IC50
Procedure: EGF Receptor kinase activity in cells genetically engineered to express human EGF-R can be measured as described below:
Materials and Reagents. • a. […] 05-101 (UBI) (a monoclonal antibody recognizing an EGFR extracellular domain). • c. Anti-phosphotyosine antibody (anti-Ptyr) (polyclonal). • d. Detection antibody: Goat anti-rabbit IgG horse radish peroxidase conjugate, TAGO, Inc. Burlingame, Calif. • e. TBST buffer:
• Keep solution in dark at 4° C. until used. • h. Stock reagents of:
Pre-coat ELISA Plate • 1. […] Coated plates are good for up to 10 days when stored at 4° C. • 2. On day-of use, remove coating buffer and replace with blocking buffer (5% Carnation Instant NonFat Dry Milk in PBS). Incubate the plate, shaking, at room temperature (about 23° C. to 25° C.) for 30 minutes. Just prior to use, remove blocking buffer and wash plate 4 times with TBST buffer.
Seeding Cells • 1. […] Choose dishes having 80-90% confluence for the experiment. Trypsinize cells and stop reaction by adding 10% CS DMEM medium. Suspend cells in DMEM medium (10% CS DMEM medium) and centrifuge once at 1000 rpm at room temperature for 5 minutes. • 3. Resuspend cells in seeding medium (DMEM, 0.5% bovine serum), and count the cells using trypan blue. Viability above 90% is acceptable. Seed cells in DMEM medium (0.5% bovine serum) at a density of 10,000 cells per well, 100 μl per well, in a 96 well microtiter plate. Incubate seeded cells in 5% CO2 at 37° C. for about 40 hours.
Assay Procedures. • 1. Check seeded cells for contamination using an inverted microscope. Dilute test compounds stock (10 mg/ml in DMSO) 1:10 in DMEM medium, then transfer 5 μl to a test well for a test compounds drug dilution of 1:200 and a final DMSO concentration of 1%. Control wells receive DMSO alone. Incubate in 5% CO2 at 37° C. for one hour. • 2. Prepare EGF ligand: dilute stock EGF in DMEM so that upon transfer of 10 μl dilute EGF (1:12 dilution), 25 nM final concentration is attained. • 3. Prepare fresh 10 ml HNTG* sufficient for 100 μl per well wherein HNTG* comprises: HNTG stock (2.0 ml), milli-Q H2O (7.3 ml), EDTA, 100 mM, pH 7.0 (0.5 ml), Na3VO4 0.5 M (0.1 ml) and Na4(P2O7), 0.2 M (0.1 ml). • 4. Place on ice. • 5. After two hours incubation with drug, add prepared EGF ligand to cells, 10 μl per well, to yield a final concentration of 25 nM. Control wells receive DMEM alone. Incubate, shaking, at room temperature, for 5 minutes. • 6. Remove test compound, EGF, and DMEM. Wash cells twice with PBS. Transfer HNTG* to cells, 100 μl per well. Place on ice for 5 minutes. Meanwhile, remove blocking buffer from other ELISA plate and wash with TBST as described above. • 7. With a pipette tip securely fitted to a micropipettor, scrape cells from plate and homogenize cell material by repeatedly aspirating and dispensing the HNTG* lysis buffer. Transfer lysate to a coated, blocked, and washed ELISA plate. Incubate shaking at room temperature for one hour. • 8. Remove lysate and wash 4 times with TBST. Transfer freshly diluted anti-Ptyr antibody to ELISA plate at 100 μl per well. Incubate shaking at room temperature for 30 minutes in the presence of the anti-Ptyr antiserum (1:3000 dilution in TBST). • 9. Remove the anti-Ptyr antibody and wash 4 times with TBST. Transfer the freshly diluted TAGO 30 anti-rabbit IgG antibody to the ELISA plate at 100 μl per well. Incubate shaking at room temperature for 30 minutes (anti-rabbit IgG antibody: 1:3000 dilution in TBST). • 10. Remove detection antibody and wash 4 times with TBST. Transfer freshly prepared ABTS/H2O2 solution to ELISA plate, 100 μl per well. Incubate at room temperature for 20 minutes. ABTS/H2O2 solution: 1.2 μl 30% H2O2 in 10 ml ABTS stock. • 11. Stop reaction by adding 50 μl 5N H2SO4 (optional), and determine O.D. at 410 nm. • 12. The maximal phosphotyrosine signal is determined by subtracting the value of the negative controls from the positive controls. […]

EGFR, sequence (P00533 25-1210): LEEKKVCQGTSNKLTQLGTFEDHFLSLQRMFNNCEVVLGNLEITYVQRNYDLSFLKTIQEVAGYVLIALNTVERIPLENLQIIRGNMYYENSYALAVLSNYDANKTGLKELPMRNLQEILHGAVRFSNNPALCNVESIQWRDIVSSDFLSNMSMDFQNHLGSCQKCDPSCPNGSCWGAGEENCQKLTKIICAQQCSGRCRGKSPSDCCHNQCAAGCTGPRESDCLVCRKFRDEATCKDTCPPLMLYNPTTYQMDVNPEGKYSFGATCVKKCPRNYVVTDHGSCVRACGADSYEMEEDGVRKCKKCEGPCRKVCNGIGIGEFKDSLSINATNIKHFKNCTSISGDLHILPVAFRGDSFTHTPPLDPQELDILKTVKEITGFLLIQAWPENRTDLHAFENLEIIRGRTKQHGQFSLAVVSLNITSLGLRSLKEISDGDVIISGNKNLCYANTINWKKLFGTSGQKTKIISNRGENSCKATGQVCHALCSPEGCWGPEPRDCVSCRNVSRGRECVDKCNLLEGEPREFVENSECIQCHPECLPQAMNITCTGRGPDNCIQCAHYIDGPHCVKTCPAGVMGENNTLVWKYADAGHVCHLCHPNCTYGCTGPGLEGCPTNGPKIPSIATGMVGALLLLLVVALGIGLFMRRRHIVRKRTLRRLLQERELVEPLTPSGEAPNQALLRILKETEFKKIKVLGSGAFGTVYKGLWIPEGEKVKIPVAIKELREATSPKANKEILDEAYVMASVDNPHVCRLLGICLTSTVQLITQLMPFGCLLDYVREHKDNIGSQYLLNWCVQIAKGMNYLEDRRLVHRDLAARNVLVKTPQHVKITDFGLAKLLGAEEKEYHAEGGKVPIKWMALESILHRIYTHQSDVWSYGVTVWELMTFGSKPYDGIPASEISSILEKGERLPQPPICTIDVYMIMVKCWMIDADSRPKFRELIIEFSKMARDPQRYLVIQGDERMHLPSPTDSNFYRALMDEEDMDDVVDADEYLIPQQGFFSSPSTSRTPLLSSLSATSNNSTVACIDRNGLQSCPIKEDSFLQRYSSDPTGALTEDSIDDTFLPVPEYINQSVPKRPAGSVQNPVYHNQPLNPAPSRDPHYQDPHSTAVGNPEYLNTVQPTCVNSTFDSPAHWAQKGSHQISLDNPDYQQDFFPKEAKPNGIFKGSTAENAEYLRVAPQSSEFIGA

| IC50 | SMILES |
| --- | --- |
| 43.7 µM | COc1cc(C)c(C=C2C(=O)Nc3ccccc32)cc1C(C)C [Example 8, 3-(5-Isopropyl-4-methoxy-2-methylbenzylidene)-1,3-dihydroindol-2-one] |
| 66.8 µM | COc1cc(C)c(/C=C2/C(=O)Nc3ccc(Br)cc32)cc1C(C)C [Example 36, 5-Bromo-3-(5-isopropyl-4-methoxy-2-methyl-benzylidene)-1,3-dihydroindol-2-one] |
| > 100 µM | COc1c(C(C)C)cc(/C=C2/C(=O)Nc3cc(NC(=O)OC(C)(C)C)ccc32)cc1C(C)C [Example 52, [3-(3,5-Diisopropyl-4-methoxybenzylidene)-2-oxo-2,3-dihydro-1H-indol-6-yl]-carbamic acid tert-butyl ester] |
| > 100 µM | O=C1Nc2ccccc2/C1=C\c1ccc2c(c1)CCO2 [Example 66, 3-(2,3-Dihydrobenzofuran-5-ylmethylene)-1,3-dihydroindol-2-one] |
| > 100 µM | COc1ccccc1-c1ccc2c(c1)NC(=O)/C2=C\c1[nH]c(C)cc1CCC(=O)O [Example 109, 3-{2-[6-(2-Methoxyphenyl)-2-oxo-1,2-dihydroindol-3-ylidenemethyl]-5-methyl-1H-pyrrol-3-yl}-propionic acid] |
| 37.7 µM | CC1(C)CCc2cc(/C=C3/C(=O)Nc4ccc(F)cc43)ccc2O1 [Example 23, 3-(2,2-Dimethylchroman-6-ylmethylene)-5-fluoro-1,3-dihydroindol-2-one] |
| 46.5 µM | CC1(C)CCc2cc(/C=C3/C(=O)Nc4ccc(Cl)cc43)ccc2O1 [Example 15, 5-Chloro-3-(2,2-dimethyl-chroman-6-ylmethylene)-1,3-dihydroindol-2-one] |
| > 100 µM | COc1cc(C)c(/C=C2/C(=O)Nc3ncccc32)cc1C(C)C [Example 45, 3-(5-Isopropyl-4-methoxy-2-methylbenzylidene)-1,3-dihydro-pyrrolo[2,3-b]pyridin-2-one] |
| > 100 µM | Cc1cccc2c1/C(=C/c1ccc3c(c1)CCC(C)(C)O3)C(=O)N2 [Example 41, 3-(2,2-Dimethylchroman-6-ylmethylene)-4-methyl-1,3-dihydroindol-2-one] |
| > 100 µM | COc1ccc(/C=C2\C(=O)Nc3cccc(C)c32)cc1C1CCCC1 [Example 48, 3-(3-Cyclopentyl-4-methoxybenzylidene)-4-methyl-1,3-dihydroindol-2-one] |
| > 100 µM | COc1ccc(/C=C2\C(=O)Nc3cccc(C)c32)cc1C(C)C [Example 38, 3-(3-Isopropyl-4-methoxybenzylidene)-4-methyl-1,3-dihydroindol-2-one] |
| > 100 µM | CC(=O)Nc1ccc2c(c1)NC(=O)/C2=C/c1ccc(OCCN2CCOCC2)c(-c2ccsc2)c1 [Example 50, N-{3-[4-(2-Morpholin-4-ylethoxy)-3-thiophen-3-ylbenzylidene]-2-oxo-2,3-dihydro-1H-indol-6-yl}-acetamide] |
| > 100 µM | Cc1cccc2c1/C(=C/c1ccc3c(c1)CCO3)C(=O)N2 [Example 69, 3-(2,3-Dihydrobenzofuran-5-ylmethylene)-4-methyl-1,3-dihydroindol-2-one] |
| 63.4 µM | COc1cc(C)c(/C=C2/C(=O)Nc3ccc(F)cc32)cc1C(C)C [Example 30, 5-Fluoro-3-(5-isopropyl-4-methoxy-2-methyl-benzylidene)-1,3-dihydroindol-2-one] |
| 56.1 µM | COc1ccc(/C=C2/C(=O)Nc3ccccc32)cc1C1CCCC1 [Example 10, 3-(3-Cyclopentyl-4-methoxybenzylidene)-1,3-dihydroindol-2-one] |
| > 100 µM | COc1cc(C=C2C(=O)Nc3ccccc32)c(-c2ccccc2OC)cc1OC [Example 49, 3-(4,5,2′-Trimethoxybiphenyl-2-ylmethylene)-1,3-dihydroindol-2-one] |
| 44.5 µM | CC(=O)Nc1ccc2c(c1)NC(=O)/C2=C/c1ccc(OCCN2CCOCC2)c(C2CCCCC2)c1 [Example 16, N-{3-[3-Cyclohexyl-4-(2-morpholin-4-ylethoxy)-benzylidene]-2-oxo-2,3-dihydro-1H-indol-6-yl}-acetamide] |
| > 100 µM | CCOC(=O)c1c(C)[nH]c(/C=C2\C(=O)Nc3cc(-c4ccccc4OC)ccc32)c1CCC(=O)O [Example 110, 4-(2-Carboxyethyl)-5-[6-(2-methoxyphenyl)-2-oxo-1,2-dihydro-indol-3-ylidenemethyl]-2-methyl-1H-pyrrol-3-yl-carboxylic acid ethyl ester] |
| > 100 µM | COc1ccc(/C=C2/C(=O)Nc3ccc(Cl)cc32)cc1-c1cccs1 [Example 59, 5-chloro-3-(4-Methoxy-3-thiophen-2-ylbenzylidene)-1,3-dihydroindol-2-one] |
| 40.4 µM | COc1ccc(/C=C2/C(=O)Nc3ccccc32)cc1C(C)C [Example 7, 3-(3-Isopropyl-4-methoxybenzylidene)-1,3-dihydroindol-2-one] |
| 21.5 µM | COc1c(C(C)C)cc(/C=C2/C(=O)Nc3ccc(C(C)=O)cc32)cc1C(C)C [Example 5, 5-Acetyl-3-(3,5-diisopropyl-4-methoxybenzylidene)-1,3dihydroindol-2-one] |
| 30.6 µM | COc1cc(C)c(C=C2C(=O)Nc3cc(NC(C)=O)ccc32)cc1C(C)C [Example 27, N-[3-(5-Isopropyl-4-methoxy-2-methyl-benzylidene)-2-oxo-2,3-dihydro-1H-indol-6-yl]-acetamide] |
| > 100 µM | O=C1Nc2ccc(Br)cc2/C1=C/c1cc2ccccc2[nH]1 [Example 165, 5-Bromo-3-(1H-indol-2-ylmethylene)-1,3-dihydro-indol-2-one] |
| 29.6 µM | COc1ccc(/C=C2/C(=O)Nc3cc(NC(C)=O)ccc32)cc1-c1cccs1 [Example 31, N-[3-(4-Methoxy-3-thiophen-2-ylbenzylidene)-2-oxo-2,3-dihydro-1H-indol-6-yl]-acetamide] |
| > 100 µM | COc1ccc(/C=C2\C(=O)Nc3cccc(C)c32)cc1C1CCCCC1 [Example 68, 3-(3-Cyclohexyl-4-methoxybenzylidene)-4-methyl-1,3-dihydroindol-2-one] |
| > 100 µM | COc1ccc(/C=C2/C(=O)Nc3cc(NC(C)=O)ccc32)cc1-c1ccsc1 [Example 18, N-[3-(4-Methoxy-3-thiophene-3-ylbenzylidene)-2-oxo-2,3-dihydro-1H-indol-6-yl]-acetamide] |
| > 100 µM | COc1ccc(C=C2C(=O)Nc3cc(NC(C)=O)ccc32)cc1-c1cccc(NC(C)=O)c1 (mixture of isomers) [Example 63, N-[3-(3′-Acetylamino-6-methoxybiphenyl-3-ylmethylene)-2-oxo-2,3-dihydro-1H-indol-6-yl]-acetamide] |
| > 100 µM | COc1c(C(C)C)cc(/C=C2/C(=O)Nc3cc(N)ccc32)cc1C(C)C [Example 32, 6-Amino-3-(3,5-diisoprotyl-4-methoxy-benzylidene)-1,3-dihydroindol-2-one] |
| 78.1 µM | COc1c(C(C)C)cc(/C=C2/C(=O)Nc3ccc(N)cc32)cc1C(C)C [Example 20, 5-Amino-3-(3,5-diisopropyl-4-methoxy-benzylidene)-1,3-dihydroindol-2-one] |
| 34.8 µM | COc1c(C(C)C)cc(/C=C2/C(=O)Nc3ccc(C)cc32)cc1C(C)C [Example 19, 3-(3,5-Diisopropyl-4-methoxybenzylidene)-5-methyl-1,3-dihydroindol-2-one] |

— patent publication US6855730B2, “3-methylidenyl-2-indolinone modulators of protein kinase” (Sugen, Inc., priority 1998, dated 2005)
